Experimental data as given in patent US9969744B2, “Compounds for use in cognition improvement” (FUNDACIÓN PARA LA INVESTIGACIÓN MÉDICA APLICADA, priority 2014, dated 2018).

Assays:
pCREB = assay: In-vivo pCREB in hippocampus of wild type mice; details: 1 h after single dose 40 mg/kg i.p.
Experimental: Another group of animals received the vehicle (1/1/8, v:v:v, DMSO/Tween 20/saline). One hour later, mice were sacrificed by cervical dislocation and their hippocampus was quickly dissected from the brains. Total tissue homogenates were obtained by homogenizing the hippocampus in a cold lysis buffer with protease inhibitors (0.2 M NaCl, 0.1 M HEPES, 10% glycerol, 200 mM NaF, 2 mM Na4P2O7, 5 mM EDTA, 1 mM EGTA, 2 mM DTT, 0.5 mM PMSF, 1 mM Na3VO4 and Complete Protease Inhibitor Cocktail, Roche Diagnostics). The homogenate was then centrifuged at 14,000×g at 4° C. for 20 min and the supernatant aliquoted and stored at −80° C. Total protein concentrations were determined using the BioRad Bradford protein assay (BioRad Laboratories). Protein samples were analyzed as described in the “in vitro” section.

[1] = system: carboxyl terminal fragment AβPP (C99); assay: AD-related markers in Tg2576 neurons: APP processing (C99); type: cell-based, mouse; details: Tg2576 primary neurons, compound concentration 50 nM
Experimental: The effects of the compounds on amyloid pathology were analysed in primary cultures after 21 days in-vitro (DIV) of neurons derived from the hippocampus and cortex of Tg2576 mouse embryos. Tg2576 mice express the human 695-aa isoform of APP (hAPP) containing the Swedish double mutation, which favours A3 production. Neurons were treated for two days and collected at day 3, 24 h after the last treatment. First it was analysed the effect of the compounds on hAPP processing by the amyloidogenic pathway by measuring the carboxyl terminal fragment AβPP (C99), which is the precursor of Aβ42. In this case the reported EC50, Table 2 (below), means a 50% decrease in C99 levels over basal (vehicle, no treatment).
To analyze APP-derived fragments and p-Tau levels in primary neuronal cultures, cells were collected in a buffer containing SDS (2%), Tris-HCl (10 mM, pH 7.4), protease inhibitors (1 mM phenylmethylsulfonyl fluoride (PMSF) and Complete Protease Inhibitor Cocktail: Roche Diagnostics) and phosphatase inhibitors (0.1 mM Na3VO4 and 1 mM NaF). The homogenates were sonicated for 2 min and centrifuged at 100,000×g for 1 h. Aliquots of the supernatant were frozen at […] and their protein concentrations determined by the Bradford method using the Bio-Rad protein assay (Bio-Rad, Hercules, Calif., USA). […]

[2] = system: acetylated histone 3 at Lys9 (AcH3K9); assay: HDAC activity using SHSY-5Y cell line (Western blot, histone 3 acetylation); type: cell-based, human; details: SHSY-5Y cells, 24 hours
Experimental: HDAC inhibition leads to the corresponding functional response, increase in AcH3 level. Therefore, the cellular assay to conclude HDAC activity was assessed by Western blot analysis using specific antibodies against acetylated histone 3 at Lys9 (AcH3K9). Cell cultures were treated at 100 nM, 500 nM, 1 μM and/or 5 μM with compounds of the invention or known PDE inhibitors during 24 hours and, Table 1 (below) describes the functional activity: histone 3 acetylation level (AcH3) vs basal (no treatment).
A human neuroblastoma cell line (SHSY-5Y) was used. Cell line was obtained from ATCC (CRL-2266) and cultured in 35 mm plates (Becton Dickinson, NJ).
The cells were grown to 90% confluence at 37° C. in an atmosphere of 5% CO2 and in Dulbecco's modified Eagle's medium supplemented with Glutamax (Gibco, Invitrogen, CA), 100 units/ml penicillin/streptomycin, 1×MEM nonessential amino acids and 10% fetal bovine serum (Gibco, Invitrogen, CA).
Cells were collected and sonicated in a buffer containing a cold lysis buffer with protease inhibitors (0.2 M NaCl, 0.1 M HEPES (4-(2-hydroxyethyl)-1-piperazineethanesulfonic acid), 10% glycerol, 200 mM NaF, 2 mM Na4P2O7, 5 mM EDTA (ethylenediaminetetraacetic acid), 1 mM EGTA (ethylene glycol tetraacetic acid), 2 mM DTT (dithiothreitol), 0.5 mM PMSF (phenylmethylsulfonyl fluoride), 1 mM Na3VO4 and Complete Protease Inhibitor Cocktail, Roche Diagnostics), centrifuged at 14,000×g 4° C. for 20 min and the supernatant was aliquoted and stored at −80° C. Total protein concentrations were determined using the BioRad Bradford protein assay (BioRad Laboratories).
Protein samples were mixed with Laemmli sample buffer, resolved onto Sodium Dodecyl Sulfate (SDS)-polyacrylamide gels and transferred to nitrocellulose membrane. The membranes were blocked with 5% milk, 0.05% Tween-20 in PBS (Phosphate-Buffered Saline) or TBS (Tris-Buffered Saline) followed by overnight incubation with the following primary antibodies: rabbit polyclonal anti-acetylated Histone 3 (acetyl K9) (Cell Signalling Technology), rabbit polyclonal anti-total Histone 3 (Millipore), in the corresponding buffer. All the antibodies were used at 1:1000 dilution except the mouse monoclonal anti-β-actin which was used at 1:50.000. Following two washes in TBS/Tween20 and one wash in TBS alone, immunolabeled protein bands were detected by using HRP-conjugated anti-rabbit or anti-mouse antibody (Santa Cruz Biotechnology; dilution 1:5.000) following an enhanced chemiluminescence system (ECL, GE Healthcare Bioscience, Buckinghamshire, UK), and autoradiographic exposure to HyperfilmtECL (GE Healthcare Bioscience). Quantity One™ software v.4.6.3 (Bio-Rad) was used for quantification.

PDE5A1 = molecular target: T1, PDE5A1 (Homo sapiens, UniProt O76074); assay: PDE enzyme activity assay (HTRF cGMP), PDE5A; type: biochemical; details: recombinant enzyme; read-out: PDE5A1 inhibition (IC50)
T1 construct: they are full-length with N-terminal GST tag; GST (N); purchased BPS Biosciences 60050; host or cells: baculovirus infected Sf9 cells

## CCCc1nn(C)c2c(=O)[nH]c(-c3cc(Cc4ccc(C(=O)Nc5ccccc5N)cc4)ccc3OCC)nc12 [Example 1-11, N-(2-aminophenyl)-4-[[4-ethoxy-3-(1-methyl-7-oxo-3-propyl-6H-pyrazolo[4,3-d]pyrimidin-5-yl)phenyl]methyl]benzamide]
pCREB
  pCREB increment vs basal: +++ (basal x2≤(+++)<basal x3)
[1]
  decrease in C99 levels over basal: ++ (basal x0.2≤(++)<basal x0.4 (reduction between 20% and 40%))
[2]; compound concentration 100 nM
  AcH3: increment in Histone 3 acetylation level vs basal: ++ (basal x1.4≤(++)<basal x2)
[2]; compound concentration 500 nM
  AcH3: increment in Histone 3 acetylation level vs basal: ++ (basal x1.4≤(++)<basal x2)
[2]; compound concentration 1 μM
  AcH3: increment in Histone 3 acetylation level vs basal: +++ (basal x2≤(+++)<basal x3)
PDE5A1
  IC50: 10 to 1000 nM
